According to patent US10472341B2, “Bicyclic tetrahydrothiazepine derivatives useful for the treatment of neoplastic and/or infectious diseases” (APEIRON BIOLOGICS AG, priority 2015, dated 2019):
pEC50: −log10 of the molar value. Counter-ions that a name gives are not always drawn.

Columns and labels:
[1] = system: NK cells; assay: NK cell stimulation by IL-2: IFN-gamma and TNF-alpha release; type: cell-based, human; details: for IFN-gamma / TNF-alpha: IL-2 stimulation
Procedure: Isolated NK cells were plated in Xvivo medium at 1.5*10^5 cells per in 96 well culture plates and stimulated with 50 ng/ml IL-2 (Aldesleukin) where indicated. Cytokine secretion was determined by ELISA, immune cell activation by flow cytometry (Beckman-Coulter Abs CD25-PC5, CD69-PC7 and acquisition on Beckman-Coulter Gallios) using 7-AAD exclusion as criterion for living cells. IL-2 is a key factor for survival, proliferation and activation of NK cells, thus linking adaptive immunity mediated by T cells with the innate immunity mediated by NK cells. Especially CD8 T cells release IL-2 locally at the site of antigen-encounter in the tumor, and thus support and activate NK cell anti-tumor functions. Compound example 67 has been chosen as an example. […] Thus, compounds have a unique potential to support the interlinked anti-tumor immunity of T and NK cells in the physiological context in vivo.

[2] = system: human CD19+ B-cells; assay: Cytokine production in IgM-stimulated isolated human CD19+ B-cells; type: cell-based; details: for pEC50: Homo sapiens, B-cell
Procedure: Buffy coats were obtained from a local hospital, diluted 3 fold with PBS and layered onto an isotonic Ficoll separating solution d=1.077 g/mL in 50 mL centrifuge tubes. The tubes were centrifuged at 914 g for 25 min at room temperature with the brakes off. The PBMC layer was removed and washed twice with ice-cold PBS. Erythrocytes were lysed by addition of ddH2O and cells were resuspended in X-Vivo15 (Lonza). CD19+ B cells were isolated from PBMCs by negative selection with the aid MACs kits (Miltenyi), according to manufacturer's instructions. Purified fractions were >95% CD19-positive as judged by antibody staining and assessment by cytometry. B-cells were stimulated by adding varying concentrations of human IgM (1.25-20 μg/mL goat F (ab′) 2 anti human IgM-LE/AF, Biozol) in the presence of example 1. Cells were incubated for 18 h at 37° C., 5% CO2. Assay plates were centrifuged at 400 g for 5 min and supernatants harvested. Cytokine concentration in tissue culture supernatants were determined with MSD or HTRF kits (MSD and Cisbio), according to manufacturer's instructions.

[3] = system: CD8 T cells; assay: CD69 expression on aCD3/aCD28 stimulated isolated human CD8 T cells (flow cytometry); type: cell-based; details: T-cell, 24 h after TCR stimulation, read-out: Activity Class CD69 (CD8)
In short: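 Isolated CD4 and CD8 T cells plated at 80000 cells per well in Xvivo medium and stimulated with anti-CD3/28 mAbs in presence of compound. CD69 expression measured by flow cytometry 24 h after TCR stimulation.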

CCCCNC(=O)c1ccc2c(c1)N(Cc1ccc(OC(F)(F)F)cc1)C(=O)[C@@H](N)CS2(=O)=O.Cl [Example 67, (3R)-3-amino-N-butyl-1,1,4-trioxo-5-{[4-(trifluoromethoxy)phenyl]methyl}-2,3,4,5-tetrahydro-1λ^6,5-benzothiazepine-7-carboxamide hydrochloride]
IFN-gamma ([1]; 0.03 μM): 0.71 ng/mL
TNF-alpha ([1]; 0.03 μM): 0.04 ng/mL
IFN-gamma ([1]; 0.1 μM): 0.72 ng/mL
TNF-alpha ([1]; 0.1 μM): 0.03 ng/mL
IFN-gamma ([1]; 0.3 μM): 1.00 ng/mL
TNF-alpha ([1]; 0.3 μM): 0.06 ng/mL
IFN-gamma ([1]; 1 μM): 1.23 ng/mL
TNF-alpha ([1]; 1 μM): 0.09 ng/mL
IFN-gamma ([1]; 3 μM): 1.50 ng/mL
TNF-alpha ([1]; 3 μM): 0.10 ng/mL
IFN-gamma ([1]; 10 μM): 1.40 ng/mL
TNF-alpha ([1]; 10 μM): 0.12 ng/mL
IFN-gamma ([1]; 30 μM): 1.22 ng/mL
TNF-alpha ([1]; 30 μM): 0.14 ng/mL
responsiveness of NK cells upon IL-2 activation (release of IFN-gamma and TNF-alpha) ([1]; NK cells, IL-2): can directly enhance the responsiveness of NK cells upon IL-2 activation

N[C@H]1CS(=O)(=O)c2cc(F)c(C(=O)NC3CC3(F)F)cc2N(Cc2ccc(Cl)cc2)C1=O (stereo partly drawn) [Example 1, (3R)-3-amino-5-[(4-chlorophenyl)methyl]-N-(2,2-difluorocyclopropyl)-8-fluoro-1,1,4-trioxo-2,3,4,5-tetrahydro-1λ^6,5-benzothiazepine-7-carboxamide hydrochloride]
pEC50 ([2]; IL-6, IgM 1.25 μg/mL): 5.61
pEC50 ([2]; IL-6, IgM 5 μg/mL): 5.33
pEC50 ([2]; IL-6, IgM 20 μg/mL): 5.49
pEC50 ([2]; TNF-α, IgM 1.25 μg/mL): 5.48
pEC50 ([2]; TNF-α, IgM 5 μg/mL): 5.35
pEC50 ([2]; TNF-α, IgM 20 μg/mL): 5.53
Fold Diff Mean ([2]; IL-6, IgM 1.25 μg/mL): 1.61
Fold Diff Mean ([2]; IL-6, IgM 5 μg/mL): 1.92
Fold Diff Mean ([2]; IL-6, IgM 20 μg/mL): 1.92
Fold Diff Mean ([2]; TNF-α, IgM 1.25 μg/mL): 1.64
Fold Diff Mean ([2]; TNF-α, IgM 5 μg/mL): 2.08
Fold Diff Mean ([2]; TNF-α, IgM 20 μg/mL): 1.87

Cl.N[C@H]1CS(=O)(=O)c2cc(F)c(C(=O)NCCCC(F)(F)F)cc2N(Cc2ccc(Cl)cc2)C1=O [Example 70, (3R)-3-amino-5-[(4-chlorophenyl)methyl]-8-fluoro-1,1,4-trioxo-N-(4,4,4-trifluoro-butyl)-2,3,4,5-tetrahydro-1λ^6,5-benzothiazepine-7-carboxamide hydrochloride]
pEC50 [3]: > 5.80
